{"source": "paper PMC11356819", "about": "(Molecules, 2024)", "key": {"[1]": {"assay": "lipophilicity by shake-flask method (n-octanol/water or PBS)", "format": "physicochemical", "conditions": "triplicate", "description": "As a measure for the lipophilicity of the four radiolabeled probes, their partition coefficients (logP) and distribution coefficients at pH 7.4 (logD7.4) were determined by the shake-flask method. Table 1 summarizes the results of these experiments and compares them with the predicted logD7.4 values calculated using the ADMETlab platform.\nA solution of the corresponding radiotracer in DMSO (1 µL) was added to a mixture of n-octanol and PBS (pH = 7.4) or water (750 µL of each) in a 2 mL Eppendorf vial and the vial was vortexed for 2 min and centrifuged for another 2 min to separate the two phases. A total of 300 µL of the upper n-octanol phase was then carefully removed from the top, while 300 µL of the aqueous phase was removed by piercing the bottom of the vial with a syringe and cannula to avoid contact with the organic phase. Both fractions were transferred into fresh vials and counted in a gamma counter to determine the ratio between the activity in the organic and the aqueous phase. All measurements were performed in triplicate and the results are expressed as mean ± standard deviation of the logarithm of the partition coefficient between n-octanol and water (logP) or the logarithm of the distribution coefficient between n-octanol and PBS (logD7.4), respectively."}, "U87-WT tumors": {"system": "U87-WT tumors", "assay": "PET imaging and 2TCM kinetic modelling of subcutaneous U87-WT tumors", "format": "in vivo", "description": "(§1) The in vivo tumor uptake and mIDH selectivity of [^18F]4 were investigated by small animal PET imaging in CB17-SCID mice bearing subcutaneous U87-WT and U87-mIDH tumors, which were implanted in the right and left shoulder region, respectively (Figure 6).\n(§2) Although the use of an image-derived input function instead of an invasive arterial input function could introduce some degree of systematic bias (due to, e.g., a lack of correction for spill-over and metabolism), this should affect the parameter estimation for both tumors in a given animal in the same manner and therefore have little impact on inter-tumor comparisons.\n(§3) Six male CB17-SCID mice (24–26 g) were used for the subcutaneous tumor model. Twenty-four hours before tumor implantation, the animals were injected (i.p.) with 20 µL anti-asialo GM1 rabbit (Fujifilm Wako Chemicals Europe GmbH, Neuss, Germany) in 0.9% NaCl (total volume: 100 µL) to promote tumor cell survival and growth through a temporary reduction in natural killer cell activity. For tumor inoculation, suspensions of 5 × 10^6 tumor cells in 75 µL culture medium and 75 µL Corning Matrigel (Merck, Darmstadt, Germany) were injected subcutaneously into the right (U87-WT cells) and left (U87-mIDH cells) shoulder region.\n(§4) The mice were anesthetized with isoflurane (5% for induction, 2% for maintenance) in O2/air (3:7), and a catheter for tracer injection was inserted into the lateral tail vein. They were placed on an animal holder (Medres, Cologne, Germany) and fixed with a tooth bar in a respiratory mask. Body temperature was maintained at 37 °C by warming the animal bed. Eyes were protected from drying with Bepanthen eye and nose ointment (Bayer, Leverkusen, Germany). Respiratory rate was monitored and maintained at around 40–60 breaths per minute by adjusting the isoflurane concentration. A PET scan in list mode was conducted using a Focus 220 micro PET scanner (CTI-Siemens, Erlangen, Germany) with a resolution at the center of the field of view of 1.4 mm. Data acquisition started with intravenous tracer injection and ended after 120 min. This was followed by a 10 min transmission scan using a ^57Co point source for attenuation correction. After the scan was completed, the catheter was removed and the animals were allowed to wake up in their home cage. Data were histogrammed in three ways: (1) 4 × 30 min frames for visual display, (2) 28 frames (2 × 1 min, 2 × 2 min, 6 × 4 min, 18 × 5 min) for determination of time–activity curves, (3) 53 frames (12 × 10 s, 6 × 30 s, 15 × 1 min, 20 × 5 min) for kinetic modelling. Full 3D rebinning was followed by an iterative OSEM3D/MAP reconstruction algorithm with attenuation and decay correction. The resulting voxel sizes were 0.47 mm × 0.47 mm × 0.80 mm."}, "U87-mIDH cells": {"system": "U87-mIDH cells", "assay": "cellular uptake in U87-mIDH cells", "format": "cell-based, human", "description": "Consistent with this assumption, uptake of [^18F]4 and, to a lesser extent, the ^18F-fluoroethoxylated analog [^18F]5 by both cell lines was considerably higher than that of (S)-[^18F]2.\nHuman glioblastoma cells with a c.395G>A knock-in mutation encoding mIDH1R132H (HTB-14IG™) and the corresponding wildtype cells (HTB-14™) were purchased from the American Type Culture Collection (ATCC). The cells were grown under standard culture conditions (5% CO2 and 95% air at 37 °C) in Eagle’s Minimum Essential Medium (MEM) supplemented with 10% fetal bovine serum (FBS) and antibiotics (penicillin–streptomycin mixed solution, Gibco, Thermo Fisher Scientific, Oberhausen, Germany).\nFor the cellular uptake studies, 1.5 × 10^5 cells were seeded into gelatin-coated 12-well transwell plates and incubated in 1 mL MEM (without FBS and antibiotics) containing 18.5 kBq (0.5 µCi) of the corresponding radiotracer. After incubation at 21 °C for 1 h, the supernatant was collected, the cells were lysed with 40 mM NaOH and the radioactivity of both fractions was measured with a gamma counter. The total protein concentration of the cell lysate was measured by a bicinchoninic acid (BCA) assay. The radiotracer uptake was calculated as the ratio of radioactivity in the cell fraction and the supernatant and normalized by protein content (% uptake/100 µg protein). Statistical analysis of the results was performed with Originlab Pro 2023b using two-tailed t-tests with a significance level of 0.05 to identify significant differences between groups."}, "U87-mIDH tumors": {"system": "U87-mIDH tumors", "assay": "PET imaging and 2TCM kinetic modelling of subcutaneous U87-mIDH tumors", "format": "in vivo", "description": "as §1, §2, §3, §4"}}, "data": [{"smiles": "COc1cc(NCc2cc3cc([18F])ccc3[nH]c2=O)ccc1C#N", "note": "[[^18F]4]", "values": [{"measurement": "logD", "setting": "[1]; n-octanol/PBS pH 7.4, shake-flask, read-out: logD7.4 Exp. Determined", "result": "2.67 ± 0.04"}, {"measurement": "logP", "setting": "[1]; n-octanol/water, shake-flask, read-out: logP", "result": "2.5 ± 0.03"}, {"measurement": "Ratio (WT/mIDH) of SUVbw", "setting": "U87-WT tumors; 0–30 min", "result": 1.1}, {"measurement": "SUVbw U87-WT", "setting": "U87-WT tumors; 0–30 min", "result": "35 ± 4"}, {"measurement": "Ratio (WT/mIDH) of SUVbw", "setting": "U87-WT tumors; 30–60 min", "result": 1.7}, {"measurement": "SUVbw U87-WT", "setting": "U87-WT tumors; 30–60 min", "result": "42 ± 9"}, {"measurement": "Ratio (WT/mIDH) of SUVbw", "setting": "U87-WT tumors; 60–90 min", "result": 1.9}, {"measurement": "SUVbw U87-WT", "setting": "U87-WT tumors; 60–90 min", "result": "36 ± 10"}, {"measurement": "Ratio (WT/mIDH) of SUVbw", "setting": "U87-WT tumors; 90–120 min", "result": 1.9}, {"measurement": "SUVbw U87-WT", "setting": "U87-WT tumors; 90–120 min", "result": "30 ± 10"}, {"measurement": "K1", "setting": "U87-WT tumors; U87-WT tumor, 2TCM, n = 5", "result": "0.174 ± 0.068", "unit": "mL/ccm/min"}, {"measurement": "K1/k2", "setting": "U87-WT tumors; U87-WT tumor, 2TCM, n = 5", "result": "0.345 ± 0.172", "unit": "mL/ccm"}, {"measurement": "VS (specific distribution volume)", "setting": "U87-WT tumors; U87-WT tumor, 2TCM, n = 5", "result": "0.576 ± 0.143", "unit": "mL/ccm"}, {"measurement": "VT (total distribution volume)", "setting": "U87-WT tumors; U87-WT tumor, 2TCM, n = 5", "result": "0.921 ± 0.250", "unit": "mL/ccm"}, {"measurement": "k2", "setting": "U87-WT tumors; U87-WT tumor, 2TCM, n = 5", "result": "0.553 ± 0.238", "unit": "min⁻¹"}, {"measurement": "k3", "setting": "U87-WT tumors; U87-WT tumor, 2TCM, n = 5", "result": "0.089 ± 0.059", "unit": "min⁻¹"}, {"measurement": "k3/k4, BPND (non-displaceable binding potential)", "setting": "U87-WT tumors; U87-WT tumor, 2TCM, n = 5", "result": "1.874 ± 0.653 1/1"}, {"measurement": "k4", "setting": "U87-WT tumors; U87-WT tumor, 2TCM, n = 5", "result": "0.044 ± 0.022", "unit": "min⁻¹"}, {"measurement": "max. SUVbw U87-WT tumors", "setting": "U87-WT tumors; after 38 min, n = 3", "result": "45 ± 8"}, {"measurement": "fold higher cellular uptake than (S)-[^18F]2", "setting": "U87-mIDH cells; U87-mIDH and U87-WT cells", "result": "5−8 fold"}, {"measurement": "cellular uptake", "setting": "U87-mIDH cells; U87-mIDH cells, incubation 1 h", "result": "6.0 ± 2.0", "unit": "% per 100 µg protein"}, {"measurement": "SUVbw U87-mIDH", "setting": "U87-mIDH tumors; 0–30 min", "result": "31 ± 3"}, {"measurement": "SUVbw U87-mIDH", "setting": "U87-mIDH tumors; 30–60 min", "result": "24 ± 2"}, {"measurement": "SUVbw U87-mIDH", "setting": "U87-mIDH tumors; 60–90 min", "result": "18 ± 1"}, {"measurement": "SUVbw U87-mIDH", "setting": "U87-mIDH tumors; 90–120 min", "result": "16 ± 1"}, {"measurement": "K1", "setting": "U87-mIDH tumors; U87-mIDH tumor, 2TCM, n = 5", "result": "0.141 ± 0.047", "unit": "mL/ccm/min"}, {"measurement": "K1/k2", "setting": "U87-mIDH tumors; U87-mIDH tumor, 2TCM, n = 5", "result": "0.246 ± 0.063", "unit": "mL/ccm"}, {"measurement": "VS (specific distribution volume)", "setting": "U87-mIDH tumors; U87-mIDH tumor, 2TCM, n = 5", "result": "0.225 ± 0.070", "unit": "mL/ccm"}, {"measurement": "VT (total distribution volume)", "setting": "U87-mIDH tumors; U87-mIDH tumor, 2TCM, n = 5", "result": "0.471 ± 0.084", "unit": "mL/ccm"}, {"measurement": "k2", "setting": "U87-mIDH tumors; U87-mIDH tumor, 2TCM, n = 5", "result": "0.578 ± 0.173", "unit": "min⁻¹"}, {"measurement": "k3", "setting": "U87-mIDH tumors; U87-mIDH tumor, 2TCM, n = 5", "result": "0.057 ± 0.040", "unit": "min⁻¹"}, {"measurement": "k3/k4, BPND (non-displaceable binding potential)", "setting": "U87-mIDH tumors; U87-mIDH tumor, 2TCM, n = 5", "result": "0.962 ± 0.399 1/1"}, {"measurement": "k4", "setting": "U87-mIDH tumors; U87-mIDH tumor, 2TCM, n = 5", "result": "0.053 ± 0.023", "unit": "min⁻¹"}, {"measurement": "max. SUVbw U87-mIDH tumors", "setting": "U87-mIDH tumors; peak after 8 min, n = 3", "result": "35 ± 8"}]}]}
